The species named for test [1] is Rattus norvegicus. Nature of the test: Inhibition of Monoamine oxidase in rat brain mitochondria at 0.008 mM by kynuramine fluorimetric assay.
Test [2] is filed under the species Rattus norvegicus. Nature of the test: Inhibition of Monoamine oxidase in rat brain mitochondria at 0.8 mM by kynuramine fluorimetric assay.
The species entered for test [3] is Rattus norvegicus. Nature of the test: Inhibition of Monoamine oxidase in rat brain mitochondria at 0.08 mM by kynuramine fluorimetric assay.
The species named for test [4] is Rattus norvegicus. Nature of the test: Inhibition of Monoamine oxidase in rat brain mitochondria at 1 mM by kynuramine fluorimetric assay.
Test [5] is filed under the species Rattus norvegicus. Nature of the test: Inhibition of Monoamine oxidase in rat brain mitochondria at 0.01 mM by kynuramine fluorimetric assay.
Test [6] is filed under the species Rattus norvegicus. Nature of the test: Inhibition of Monoamine oxidase in rat brain mitochondria at 0.1 mM by kynuramine fluorimetric assay.

`CCCCC1(CCCC)OC(c2cc(OC)c(OC)c(OC)c2)=NN1C(C)=O`: the inhibition in test [1], in test [2] and in test [3] was 0% throughout.

In the case of `CCCCC1(CCCC)OC(c2ccc(Cl)cc2)=NN1C(=O)NC(=O)c1c(F)cccc1F`, the inhibition in test [4] was found to be 58.8%; in test [5], 0%; in test [6] it was 6.03%.

As for `CCCCC1(CCCC)OC(c2cc(OC)c(OC)c(OC)c2)=NN1C(=O)NC(=O)c1c(F)cccc1F`, the inhibition in test [4] was determined as 69.2%; in test [5], 0%; in test [6], 21.7%.

With `CCCCC1(CCCC)OC(c2cc(C)cc(C)c2)=NN1C(=O)NC(=O)c1ccccc1Cl`, the inhibition came to 72.8% in test [4], 4.12% in test [5] and 24.6% in test [6].

For the compound `CCCCC1(CCCC)OC(c2ccc3c(c2)OCO3)=NN1C(C)=O`, the inhibition was 1.21% in test [1], 0% in test [2] and 0% in test [3].

On to `CCCCC1(CCCC)OC(c2ccco2)=NN1C(=O)NC(=O)c1c(F)cccc1F`, for which the inhibition in test [4] was 75.1%; in test [5], 1.84%; in test [6], 23.7%.

`CCCCC1(CCCC)OC(c2cc(C)cc(C)c2)=NN1C(C)=O`: the inhibition in test [1] is 2.89%; in test [2], 42.8%; in test [3], 17.7%.

As to `CCCCC1(CCCC)OC(c2ccc(Cl)cc2Cl)=NN1C(=O)NC(=O)c1c(F)cccc1F`, the inhibition was 72.5% in test [4], 5.43% in test [5] and 25.1% in test [6].

Turning to `CCCCC1(CCCC)OC(c2ccc(Cl)cc2Cl)=NN1C(=O)NC(=O)c1cc(F)c(OC)c(F)c1F`, the inhibition in test [4] amounted to 81.8%; in test [5], 2.92%; in test [6] it was 25.9%.

With `CCCCC1(CCCC)OC(c2cc(C)cc(C)c2)=NN1C(=O)NC(=O)c1c(F)cccc1F`, the inhibition turned out to be 69.2% in test [4], 5.85% in test [5] and 26.2% in test [6].

As for `CCCCC1(CCCC)OC(c2ccc(Cl)cc2Cl)=NN1C(=O)NC(=O)c1ccccc1Cl`, the inhibition was determined as 78% in test [4], 5.86% in test [5] and 24.9% in test [6].

Regarding `CCCCC1(CCCC)OC(c2ccc3c(c2)OCO3)=NN1C(=O)NC(=O)c1ccccc1Cl`, the inhibition in test [4] was 75.4%; in test [5], 6.73%; in test [6], 27.5%.

On to `CCCCC1(CCCC)OC(c2ccc3c(c2)OCO3)=NN1C(=O)NC(=O)c1c(F)cccc1F`, for which the inhibition in test [4] is 78.4%; in test [5], 8.37%; in test [6], 41%.

The values above are taken from ChEMBL document CHEMBL1156622, “1,3,4-Oxadiazole-3(2H)-carboxamide derivatives as potential novel class of monoamine oxidase (MAO) inhibitors: synthesis, evaluation, and role of urea moiety” (Bioorg Med Chem, 2008).
